Results on twelve molecules are retold here after patent US12428428B2, “Tricyclic tetrahydroisoquinoline derivative, preparation method therefor and application thereof in medicine” (JIANGSU HENGRUI MEDICINE CO., LTD., priority 2020, dated 2025).

Format in all cases: cell-based
Assay [1] concerns ERα Y537S mutant-expressing MCF7 cells. Description: Inhibition of proliferation of ERα mutant-expressing MCF7 cells. To be noted: Homo sapiens, 144 h. An excerpt:
The mutant estrogen receptor α (ERα) Y537S of human ERα protein was obtained by site-directed mutagenesis in a two-primer PCR manner using the cDNA of wild-type ESR1 gene (Accession No. NM000125) as a template. The sequences of the primers used in the mutation are as follows (the underlined nucleotides are the sites of mutation): Y537S: F-AAGAACGTGGTGCCCCTCTCTGACCTGCTGCTGGAGATG (SEQ ID NO: 1); R-CATCTCCAGCAGCAGGTCAGAGAGGGGCACCACGTTCTT (SEQ ID NO: 2). The cDNA of the mutant ESR1 was cloned into the lentiviral vector of interest pCDH-CMV-MCS-EF1-Puro. The lentiviral plasmid bearing the mutant ESR1 gene sequence and the lentiviral packaging plasmid were then transfected into HEK-293T cells (ATCC, CRL-3216) by using Lipofectamine 3000 Transfection Reagent (ThermoFisher Scientific, Cat #L3000075). Forty-eight hours after transfection, the virus-bearing medium supernatant was filtered and ultracentrifuged to obtain a virus precipitate, which was then resuspended in an appropriate amount of medium. The suspension was added to MCF7 cells (ATCC, HTB-22), followed by the addition of polybrene at a final concentration of 8 μg/mL. The mixture was incubated overnight. Two days after transfection, 1 μg/mL puromycin was added to the cell culture liquid for resistance screening. About two weeks later, an MCF7 cell line capable of stably expressing the ERαY537S mutant was obtained.
The ERα mutant-expressing MCF7 cells were cultured in an MEM (GE Healthcare, SH30024.01) complete medium containing 10% fetal bovine serum. On the first day of the experiment, the cells were seeded into a 96-well plate with complete medium at a density of 3,000 cells/well to form 100 μL of cell suspension per well. The plate was incubated overnight in a cell incubator at 37° C. with 5% CO2. The following day the medium was removed, and 135 μL of an MEM incomplete medium containing 2% fetal bovine serum, and 15 μL of a test compound prepared at different concentrations with the incomplete medium were added to each well. The final concentrations of the compound were 9 concentration points obtained by 4-fold serial dilution from 100 nM. A blank control containing 0.5% DMSO was set. The plate was incubated in a cell incubator at 37° C. with 5% CO2 for 144 h. On day 8, the 96-well cell culture plate was taken out. 150 μL of CellTiter-Glo® Luminescent Cell Viability Assay (Promega, G7573) was added to each well. The plate was let stand at room temperature for 10 min, and the luminescence signal values was read using a multilabel microplate reader (PerkinElmer, VICTOR 3). The IC50 values for the inhibitory activity of the compounds were calculated according to the compound concentrations and the luminescence signal values and are shown in Table 3.

A further assay relates to MCF-7 cells. In words: Inhibition of proliferation of MCF-7 cells (ATP method, Cell Titer-Glo). To be noted: Homo sapiens, MCF7; MCF-7 cells, 72 h. The protocol: This experiment was intended to test the inhibitory effects of the compounds disclosed herein on the proliferation of MCF-7 Cells by using the ATP method, and to evaluate the in vitro activity of the compounds according to the IC50 values.
MCF-7 cells (TCHu74, National Collection of Authenticated Cell Cultures) were seeded into a 96-well plate with an MEM (hyclone, SH30024.01B) medium containing 10% FBS (Gibco, 10099-141), 1% sodium pyruvate (sigma, 58636) and 1% non-essential amino acid (sigma, M7145) at a density of 4,000 cells/well and cultured at 37° C. with 5% CO2. 20 mM stock solutions of the compounds are prepared, serially diluted with 100% DMSO to a final concentration of 1000×, and then diluted 20-fold with a medium containing 2% FBS. After the cells were cultured for 24 h, the medium was removed. 90 μL of the medium containing 2% FBS and 10 μL of a drug were added to each well, and 10 μL of DMSO was added to the control group. The mixtures were well mixed by gentle shaking. The blank group contained only 100 μL of the medium containing 2% FBS. The cells were cultured in an incubator at 37° C. with 5% CO2 for 72 h, and then 50 μL of mixed Cell Titer-Glo (Promega, G7571) was added to each well. The mixtures were well mixed by shaking and let stand at room temperature for 10 min, and the chemiluminescence signal values were determined.
The chemiluminescence signal value was plotted against the compound concentration (in log form) using Graphpad Prism, and the IC50 values of the compounds were obtained.

A further assay concerns the target ER (estrogen receptor) (Homo sapiens (Human), UniProt P03372). Description: Inhibition of binding of E to ER (MCF-7/ERE-luciferase reporter cells). To be noted: MCF-7/ERE-luciferase cells, 0.1 nM estradiol, 24 h. The protocol:
The compounds of the present disclosure can inhibit the binding of E (estrogen) to ER (estrogen receptor), thereby blocking the binding of the complex of E and ER to ERE (estrogen response element), and consequently the expression of downstream luciferase proteins. The inhibitory effects of the compounds of the present disclosure on the binding of E to ER was tested by using the following method.
An ERE was cloned upstream of the luciferase gene, and MCF-7/ERE-luciferase monoclonal cells were selected by transfection of MCF-7 (TCHu74, National Collection of Authenticated Cell Cultures). The MCF-7/ERE-luciferase cells were seeded into a 96-well plate with an MEM (hyclone, SH30024.01B) medium containing 10% charcoal stripped FBS (Moregate, FBSF), 1% sodium pyruvate (sigma, S8636), 1% non-essential amino acids (sigma, M7145) and 500 μg/mL G418 at a density of 30,000 cells/well and cultured at 37° C. with 5% CO2. 20 mM stock solutions of the drugs are prepared, serially diluted 10-fold with 100% DMSO, and then diluted 20-fold with the medium. After the cells were cultured for 24 h, the medium was removed. 0.1 nM estradiol (sigma, E2758) and 10 μL of a medium-diluted drug were added to each well, and DMSO was added to the control group. The mixtures were well mixed by gentle shaking. The cells were cultured in an incubator at 37° C. with 5% CO2 for 24 h, and then the cell culture liquid was removed, followed by the addition of 50 μL of a luciferase substrate (Promega, E6110) to each well. The plate was let stand at room temperature in the dark for 10-15 min, and the chemiluminescence signal values were determined.
The inhibitory effects of the compounds of the present disclosure on the binding of E to ER were tested through the above experiment. The chemiluminescence signal value was plotted against the compound concentration (in log form) using Graphpad Prism, and the IC50 values of the compounds were obtained.

Sequence of ER (estrogen receptor) (P03372 whole entry): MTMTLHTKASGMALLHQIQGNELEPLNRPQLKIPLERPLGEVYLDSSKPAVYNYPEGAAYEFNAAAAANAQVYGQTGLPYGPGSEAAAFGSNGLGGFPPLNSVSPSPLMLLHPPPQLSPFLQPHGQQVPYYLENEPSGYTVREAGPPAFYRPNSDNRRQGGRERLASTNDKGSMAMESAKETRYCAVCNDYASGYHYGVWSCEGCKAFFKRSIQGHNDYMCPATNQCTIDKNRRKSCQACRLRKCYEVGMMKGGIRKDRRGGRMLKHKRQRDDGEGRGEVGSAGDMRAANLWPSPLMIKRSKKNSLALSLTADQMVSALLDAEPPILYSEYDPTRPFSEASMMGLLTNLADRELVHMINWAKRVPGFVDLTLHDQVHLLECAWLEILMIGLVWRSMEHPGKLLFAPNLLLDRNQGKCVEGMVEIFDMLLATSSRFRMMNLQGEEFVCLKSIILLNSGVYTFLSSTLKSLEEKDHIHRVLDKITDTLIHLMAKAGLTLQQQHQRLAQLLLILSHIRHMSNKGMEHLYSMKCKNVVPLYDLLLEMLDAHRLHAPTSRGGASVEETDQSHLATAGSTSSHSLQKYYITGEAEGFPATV

For the molecule `[2H]C1([2H])Oc2cc3c(cc2O1)[C@@H](c1ccc(NC2CN(CCCF)C2)cn1)N(CC(F)(F)CO)[C@H](C)C3` [Example 13, 2,2-Difluoro-3-((5S,7R)-5-(5-((1-(3-fluoropropyl)azetidin-3-yl)amino)pyridin-2-yl)-7-methyl-7,8-dihydro-[1,3]dioxolo[4,5-g]isoquinolin-6(5H)-yl-2,2-d2)propan-1-ol], the values for the half-inhibitory concentration (IC50) (in assay [1]; in the assay with MCF-7 cells) were 1.36 nM and 0.29 nM, respectively.
As to `C[C@@H]1Cc2cc3c(cc2[C@@H](c2ncc(N[C@H]4CCN(CCCF)C4)cc2F)N1CC(F)(F)F)OCO3` [Example 9, 5-Fluoro-N—((S)-1-(3-fluoropropyl)pyrrolidin-3-yl)-6-((5S,7R)-7-methyl-6-(2,2,2-trifluoroethyl)-5,6,7,8-tetrahydro-[1,3]dioxolo[4,5-g]isoquinolin-5-yl)pyridin-3-amine], the 50% inhibitory concentration (IC50) turned out to be 0.46 nM on ER (estrogen receptor), 1.35 nM in assay [1] and 0.35 nM with MCF-7 cells.
On the same counts, the results for `C[C@@H]1Cc2cc3c(cc2[C@@H](c2ccc(N[C@H]4CCN(CCCF)C4)cn2)N1CC(F)(F)F)OCO3` [Example 6, N—((S)-1-(3-fluoropropyl)pyrrolidin-3-yl)-6-((5S,7R)-7-methyl-6-(2,2,2-trifluoroethyl)-5,6,7,8-tetrahydro-[1,3]dioxolo[4,5-g]isoquinolin-5-yl)pyridin-3-amine] are 0.27 nM, 0.82 nM and 0.34 nM.
The matching figures for `C[C@@H]1Cc2cc3c(cc2[C@@H](c2ncc(N[C@H]4CCN(CCCF)C4)cc2F)N1CC(F)(F)CO)OCO3` [Example 11, 2,2-Difluoro-3-((5S,7R)-5-(3-fluoro-5-(((S)-1-(3-fluoropropyl)pyrrolidin-3-yl)amino)pyridin-2-yl)-7-methyl-7,8-dihydro-[1,3]dioxolo[4,5-g]isoquinolin-6(5H)-yl)propan-1-ol]: 0.35 nM, 0.71 nM and 0.23 nM.
The matching figures for `[2H]C1([2H])Oc2cc3c(cc2O1)[C@@H](c1ccc(N[C@H]2CCN(CCCF)C2)cn1)N(CC(F)(F)CO)[C@H](C)C3` [Example 12, 2,2-Difluoro-3-((5S,7R)-5-(5-(((S)-1-(3-fluoropropyl)pyrrolidin-3-yl)amino)pyridin-2-yl)-7-methyl-7,8-dihydro-[1,3]dioxolo[4,5-g]isoquinolin-6(5H)-yl-2,2-d2)propan-1-ol]: 1.13 nM, 3.49 nM and 1.12 nM.
For `C[C@@H]1Cc2cc3c(cc2[C@@H](c2ccc(NC4CN(CCCF)C4)cc2)N1CC(F)(F)CO)OCO3` [Example 18, 2,2-Difluoro-3-((5R,7R)-5-(4-((1-(3-fluoropropyl)azetidin-3-yl)amino)phenyl)-7-methyl-7,8-dihydro-[1,3]dioxolo[4,5-g]isoquinolin-6(5H)-yl)propan-1-ol], the IC50 was found to be 0.07 nM on ER (estrogen receptor), 0.25 nM in assay [1] and 0.07 nM in the assay on MCF-7 cells.
Regarding `C[C@@H]1Cc2cc3c(cc2[C@@H](c2ccc(N[C@H]4CCN(CCCF)C4)cc2)N1CC(F)(F)F)OCO3` [Example 1, (S)-1-(3-fluoropropyl)-N-(4-((5R,7R)-7-methyl-6-(2,2,2-trifluoroethyl)-5,6,7,8-tetrahydro-[1,3]dioxolo[4,5-g]isoquinolin-5-yl)phenyl)pyrrolidin-3-amine], the IC50 at ER (estrogen receptor) was found to be 0.14 nM; in assay [1], 1.38 nM; with MCF-7 cells it was 0.31 nM.
The matching figures for `[2H]C1([2H])Oc2cc3c(cc2O1)[C@@H](c1ccc(N[C@H]2CCN(CCCF)C2)cc1)N(CC(F)(F)CO)[C@H](C)C3` [Example 19, 2,2-Difluoro-3-((5R,7R)-5-(4-(((S)-1-(3-fluoropropyl)pyrrolidin-3-yl)amino)phenyl)-7-methyl-7,8-dihydro-[1,3]dioxolo[4,5-g]isoquinolin-6(5H)-yl-2,2-d2)propan-1-ol]: 0.07 nM, 0.43 nM and 0.07 nM.
On the same counts, the results for `C[C@@H]1Cc2cc3c(cc2[C@@H](c2ccc(N[C@H]4CCN(CCCF)C4)cc2)N1CC(F)(F)CO)OCO3` [Example 3, 2,2-Difluoro-3-((5R,7R)-5-(4-(((S)-1-(3-fluoropropyl)pyrrolidin-3-yl)amino)phenyl)-7-methyl-7,8-dihydro-[1,3]dioxolo[4,5-g]isoquinolin-6(5H)-yl)propan-1-ol] are 0.44 nM, 0.43 nM and 0.15 nM.
The matching figures for `C[C@@H]1Cc2cc3c(cc2[C@@H](c2ccc(NC4CN(CCCF)C4)cn2)N1CC(F)(F)CO)OCO3` [Example 14, 2,2-Difluoro-3-((5S,7R)-5-(5-((1-(3-fluoropropyl)azetidin-3-yl)amino)pyridin-2-yl)-7-methyl-7,8-dihydro-[1,3]dioxolo[4,5-g]isoquinolin-6(5H)-yl)propan-1-ol]: 0.5 nM, 1.27 nM and 0.36 nM.
Consider `C[C@@H]1Cc2cc3c(cc2[C@@H](c2c(F)cc(N[C@H]4CCN(CCCF)C4)cc2F)N1CC(F)(F)CO)OCO3` [Example 5, 3-((5S,7R)-5-(2,6-difluoro-4-(((S)-1-(3-fluoropropyl)pyrrolidin-3-yl)amino)phenyl)-7-methyl-7,8-dihydro-[1,3]dioxolo[4,5-g]isoquinolin-6(5H)-yl)-2,2-difluoro-1-propanol], for which the half-inhibitory concentration (IC50) was determined as 0.05 nM on ER (estrogen receptor), 0.07 nM in assay [1] and 0.03 nM with MCF-7 cells.
On the same counts, the results for `C[C@@H]1Cc2cc3c(cc2[C@@H](c2c(F)cc(O[C@H]4CCN(CCCF)C4)cc2F)N1CC(F)(F)F)OCO3` [Example 15, (5S,7R)-5-(2,6-difluoro-4-(((S)-1-(3-fluoropropyl)pyrrolidin-3-yl)oxy)phenyl)-7-methyl-6-(2,2,2-trifluoroethyl)-5,6,7,8-tetrahydro-[1,3]dioxolo[4,5-g]isoquinoline] are 0.19 nM, 0.68 nM and 0.3 nM.
